pKd: −log10 of the molar value.
Target: T1, NP (nucleoprotein of influenza A virus H1N1, full-length wild type) (Influenza A virus (A/Nanchang/11/1996(H1N1)), UniProt Q07FI1)
T1 construct: full-length (498 aa), N-terminal 6xHis-tag as printed, pET21b NdeI/XhoI, E. coli, Ni-NTA, RNase-treated lysate
Assay type: binding

T1 sequence (Q07FI1 whole entry): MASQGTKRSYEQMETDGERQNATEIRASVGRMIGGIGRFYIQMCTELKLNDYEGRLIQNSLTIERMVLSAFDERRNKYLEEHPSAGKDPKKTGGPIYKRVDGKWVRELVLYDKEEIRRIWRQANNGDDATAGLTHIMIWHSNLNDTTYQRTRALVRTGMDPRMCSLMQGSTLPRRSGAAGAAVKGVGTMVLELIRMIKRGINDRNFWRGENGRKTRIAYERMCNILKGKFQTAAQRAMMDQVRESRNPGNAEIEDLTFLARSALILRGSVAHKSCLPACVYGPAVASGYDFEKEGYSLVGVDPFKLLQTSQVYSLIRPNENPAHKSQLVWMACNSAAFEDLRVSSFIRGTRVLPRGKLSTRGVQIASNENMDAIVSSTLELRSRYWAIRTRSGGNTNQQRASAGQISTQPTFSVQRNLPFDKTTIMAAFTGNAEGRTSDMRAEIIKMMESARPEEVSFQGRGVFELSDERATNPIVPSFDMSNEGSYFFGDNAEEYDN

COc1cc(/C=C/C(=O)CC(=O)/C=C/c2ccc(O)c(OC)c2)ccc1O [H7, (E,E)-1,7-bis(4-hydroxy-3-methoxyphenyl)-1,6-heptadiene-3,5-dione]
pKd: 5.91

Reference: PMC4768256, “Using mutagenesis to explore conserved residues in the RNA-binding groove of influenza A virus nucleoprotein for antiviral drug development” (Scientific Reports, 2016)
